Assay results reported in patent publication US5422344A, “Method of treating retroviral infections in mammals” (The United States of America as represented by the …, priority 1990, dated 1995).
Read-outs that look alike come from different tables or passages of the source.

Tests used:
[1] = test system: HIV-IIIB (HIV-1) replication in H9 cells; assay: HIV replication in cocultivation of H9/HIV-IIIB chronically infected cells with H9 cells; format: cell-based
Method: 10 H9/HIV-IIIB (A,D), 100 H9/HIV-IIIB (B,E) or 1000 H9/HIV-IIIB cells (C,F) were cocultivated with 10^5 H9 cells in the presence or absence of 0.01 μM (A,B), 0.2 μM (C) , 0.005 μM (D,E), or 0,005-0.01 μM (F) of CPT for 1 h (A,B,C) or 18h (D,E,F). RT activity was measured in the culture media 7,8, and 9 days post-infection and treatment.
Cocultivation of H9/HIV-IIIB Cells with Uninfected H9 Cells and CPT Treatment: Ten, 100 or 1,000 H9/HIV-IIIB cells were cocultivated with 10^5 H9 cells in the presence or absence of different CPT doses. Cells were incubated for 1 h at 37° C., pelleted, washed and resuspended in fresh media. RT activity in the culture media was measured seven, eight, and nine days after infections, as described above.
For a longer treatment period, H9/HIV-IIIB cells were cocultivated with H9 cells in the presence or absence of 0.005-0.01 μM CPT for 18 h at 37° C.
CPT Inhibition of HIV Replication in Cocultivation of H9/HIV-IIIB Chronically Infected Cells with H9 Uninfected Cells. Since it is likely that HIV infection in vivo involves cell to cell contact and virus production by previously infected cells, the ability of CPT to block the spread of HIV in uninfected H9 cells cocultivated with cells chronically infected with HIV was examined. The results shown in FIG. 2A indicate that 100% inhibition of HIV replication was observed when 10 infected cells were mixed with uninfected cells in the presence of 0.01 μM CPT for 1 h. […] However, increasing the CPT dose to 0.2 μM reduced HIV replication to 15% of control values when 1000 infected cells were mixed with 10^5 uninfected H9 cells (FIG. 2C).

HIV = assay: Virus production in chronically HIV-infected cells; format: cell-based; conditions: non-cytotoxic doses; preliminary evidence

SMILES: CC[C@@]1(O)C(=O)OCc2c1cc1n(c2=O)Cc2cc3ccccc3nc2-1 [CPT, Camptothecin]
- activity at 0.2 µM ([1]; Human immunodeficiency virus 1, IIIB, H9, 1 h, read-out: HIV replication reduced to % of control values): 15%
- inhibition at 0.01 µM ([1]; Human immunodeficiency virus 1, IIIB, H9, 1 h, read-out: inhibition of HIV replication, 10 infected cells, 0.01 μM CPT, 1 h): 100%
- inhibition at 0.01 µM ([1]; Human immunodeficiency virus 1, IIIB, H9, 1 h, read-out: inhibition of HIV replication, 100 infected cells, 0.01 μM CPT, 1 h): 50%
- inhibition at 0.01 µM ([1]; Human immunodeficiency virus 1, IIIB, H9, 1 h, read-out: inhibition of HIV replication, 1000 infected cells, 0.01 μM CPT, 1 h (data not shown)): 13%
- inhibition at 0.005 µM ([1]; Human immunodeficiency virus 1, IIIB, H9, 18 h, read-out: inhibition of HIV replication (RT activity), 10 or 100 infected cells, 0.005 μM CPT, 18 h, days 7, 8 and 9): 98 to 100%
- inhibitory effect on HIV replication ([1]; larger numbers of infected cells, 0.2 μM CPT, or 0.005 μM for 18h): strong inhibitory effect on HIV replication
- virus production in chronically HIV-infected cells (HIV): virus production is suppressed
